Key:
Assay in all cases: Bliss excess, mean over the matrix (fraction); higher = more synergy
5637 (Bladder Carcinoma) = tested on: 5637 (Bladder Carcinoma)
Procedure, shortened: (§1)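 Cell lines in DMEM/F12 or RPMI with 10% FBS were plated in 1536-well plates, held 24 hours at 37°C, 5% CO2, then given two-drug dose matrices for 72 hours (DMSO typically 0.2%). Viability was read by CellTiter-Glo 2.0 luminescence and scaled as inhibition from 0 (vehicle wells) to 1 (blank wells). Combination Emax is the second-highest inhibition in the matrix; Bliss excess is observed combination effect minus expected EA + EB − EA·EB, EA and EB being single-agent effects.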

A101D (Melanoma) = tested on: A101D (Melanoma)
Procedure, shortened: as §1

A204 (Rhabdomyosarcoma) = tested on: A204 (Rhabdomyosarcoma)
Procedure, shortened: as §1

[1] = tested on: CESS (Acute Myeloid Leukemia)
Procedure, shortened: as §1

COLO-792 (Melanoma) = tested on: COLO-792 (Melanoma)
Procedure, shortened: as §1

[2] = tested on: DMS-53 (Small Cell Lung Carcinoma)
Procedure, shortened: as §1

[3] = tested on: DU-4475 (Breast Carcinoma)
Procedure, shortened: as §1

[4] = tested on: ESO26 (Esophageal Adenocarcinoma)
Procedure, shortened: as §1

EW-16 (Ewing's Sarcoma) = tested on: EW-16 (Ewing's Sarcoma)
Procedure, shortened: as §1

[5] = tested on: G-402 (Other Solid Carcinomas)
Procedure, shortened: as §1

[6] = tested on: HCC1428 (Breast Carcinoma)
Procedure, shortened: as §1

[7] = tested on: JIMT-1 (Breast Carcinoma)
Procedure, shortened: as §1

KP-N-YN (Neuroblastoma) = tested on: KP-N-YN (Neuroblastoma)
Procedure, shortened: as §1

[8] = tested on: LS-411N (Colorectal Carcinoma)
Procedure, shortened: as §1

NB13 (Neuroblastoma) = tested on: NB13 (Neuroblastoma)
Procedure, shortened: as §1

[9] = tested on: NCI-H2228 (Lung Adenocarcinoma)
Procedure, shortened: as §1

[10] = tested on: NCI-H716 (Colorectal Carcinoma)
Procedure, shortened: as §1

RH-41 (Rhabdomyosarcoma) = tested on: RH-41 (Rhabdomyosarcoma)
Procedure, shortened: as §1

[11] = tested on: TE-10 (Esophageal Squamous Cell Carcinoma)
Procedure, shortened: as §1

[12] = tested on: huH-1 (Hepatocellular Carcinoma)
Procedure, shortened: as §1

Structure (SMILES)	Bliss excess (5637 (Bladder Carcinoma))	Bliss excess (A101D (Melanoma))	Bliss excess (A204 (Rhabdomyosarcoma))	Bliss excess [1]	Bliss excess (COLO-792 (Melanoma))	Bliss excess [2]	Bliss excess [3]	Bliss excess [4]	Bliss excess (EW-16 (Ewing's Sarcoma))	Bliss excess [5]	Bliss excess [6]	Bliss excess [7]	Bliss excess (KP-N-YN (Neuroblastoma))	Bliss excess [8]	Bliss excess (NB13 (Neuroblastoma))	Bliss excess [9]	Bliss excess [10]	Bliss excess (RH-41 (Rhabdomyosarcoma))	Bliss excess [11]	Bliss excess [12]
Cc1cc2ncnn2cc1Nc1ncc2c(n1)n(C1CCOCC1)c(=O)n2C [AZD7648] + C[C@@H]1COCCN1C2=NC(=NC(=C2)C3(CC3)[S@](=N)(=O)C)C4=C5C=CNC5=NC=C4 [AZD6738] (first compound max 10 µM, 7x7, partner max 10 µM)	-0.0289	-0.0272	-0.0105	0.0058	0.0187	0.0179	0.0019	-0.0389	0.0269	0.0185	-0.0086	-0.0238	-0.0083	-0.0185	-0.0124	-0.0156	0.0287	0.0098	0.0327	0.02
Cc1cc2ncnn2cc1Nc1ncc2c(n1)n(C1CCOCC1)c(=O)n2C [AZD7648] + O=C(c1cc(Cc2n[nH]c(=O)c3ccccc23)ccc1F)N1CCN(C(=O)C2CC2)CC1 [Olaparib] (first compound max 10 µM, 7x7, partner max 10 µM)	-0.0198	-0.0478	-0.0802	-0.0101	-0.0435	-0.0266	0.0289	-0.003	-0.0484	-0.0814	-0.0562	-0.0191	0.0332	-0.0195	-0.0247	-0.0728	-0.0056	-0.0293	0.011	-0.0557
Cc1cc2ncnn2cc1Nc1ncc2c(n1)n(C1CCOCC1)c(=O)n2C [AZD7648] + CCN(CCO)CCCOc1ccc2c(Nc3cc(CC(=O)Nc4cccc(F)c4)[nH]n3)ncnc2c1 [AZD2811] (first compound max 10 µM, 7x7, partner max 1 µM)	0.0149	-0.0404	0.0034	0.0195	-0.0769	-0.0061	0.0035	-0.0299	0.0436	0.0421	0.0436	-0.0141	0.0461	0.0255	0.056	-0.0127	0.0292	0.0902	0.043	0.0008
CN(CCO)CC[C@H](CSc1ccccc1)Nc1ccc(S(=O)(=O)NC(=O)c2ccc(N3CCC([C@@H](O)c4ccccc4-c4ccc(Cl)cc4)CC3)cc2)cc1S(=O)(=O)C(F)(F)F [AZD4320] + C1CN(CCC1(C(=O)N[C@@H](CCO)C2=CC=C(C=C2)Cl)N)C3=NC=NC4=C3C=CN4 [Capivasertib] (first compound max 1 µM, 7x7, partner max 3 µM)	-0.0471	-0.0695	-0.0393	0.0517	0.0021	-0.0195	0.069	-0.0271	-0.0469	-0.0262	-0.0092	-0.0424	-0.0237	-0.048	0.0174	-0.0392	-0.0262	-0.0159	-0.0212	-0.0215
CN(CCO)CC[C@H](CSc1ccccc1)Nc1ccc(S(=O)(=O)NC(=O)c2ccc(N3CCC([C@@H](O)c4ccccc4-c4ccc(Cl)cc4)CC3)cc2)cc1S(=O)(=O)C(F)(F)F [AZD4320] + C=CCn1c(=O)c2cnc(Nc3ccc(N4CCN(C)CC4)cc3)nc2n1-c1cccc(C(C)(C)O)n1 [AZD1775] (first compound max 1 µM, partner max 1 µM)	0.0437	0.14	-0.0304	0.0873	0.0939	0.0817	0.0013	-0.0318	0.033	-0.0345	0.0369	0.0363	0.0631	0.0549	0.0475	-0.0344	0.0021	0.0873	-0.0084	0.01
CN(CCO)CC[C@H](CSc1ccccc1)Nc1ccc(S(=O)(=O)NC(=O)c2ccc(N3CCC([C@@H](O)c4ccccc4-c4ccc(Cl)cc4)CC3)cc2)cc1S(=O)(=O)C(F)(F)F [AZD4320] + C[C@@H](Nc1cc(F)cc(F)c1)c1cc(C(=O)N(C)C)cc2c(=O)cc(N3CCOCC3)oc12 [AZD8186] (first compound max 1 µM, 7x7, partner max 3 µM)	-0.0028	0.0831	0.0119	-0.0209	0.0763	0.0138	0.0131	0.0217	-0.0129	0.0818	0.0149	0.0064	-0.0097	0.031	0.0205	-0.0301	0.0234	0.0706	0.0157	-0.0461
Cc1cc2ncnn2cc1Nc1ncc2c(n1)n(C1CCOCC1)c(=O)n2C [AZD7648] + CN(C)CCCOc1ccc(-c2ccc3ncc4c(c3c2)n(C2CCOCC2)c(=O)n4C)cn1 [AZD0156] (first compound max 10 µM, 7x7, partner max 1 µM)	-0.0004	-0.0016	-0.0372	-0.0013	0.036	-0.0087	-0.0209	-0.031	0.0073	-0.0271	-0.0052	0.0217	0.0088	-0.0081	-0.0173	0.0707	0.0563	0.0197	-0.0023	0.0674
CN(CCO)CC[C@H](CSc1ccccc1)Nc1ccc(S(=O)(=O)NC(=O)c2ccc(N3CCC([C@@H](O)c4ccccc4-c4ccc(Cl)cc4)CC3)cc2)cc1S(=O)(=O)C(F)(F)F [AZD4320] + CCN(CCO)CCCOc1ccc2c(Nc3cc(CC(=O)Nc4cccc(F)c4)[nH]n3)ncnc2c1 [AZD2811] (first compound max 1 µM, 7x7, partner max 1 µM)	-0.0117	0.0418	-0.0553	0.164	0.0627	-0.0067	0.0738	-0.0266	0.14	0.0415	0.16	0.0004	0.0516	0.0119	0.0975	-0.0025	-0.0242	0.0867	0.038	0.0161
CN(CCO)CC[C@H](CSc1ccccc1)Nc1ccc(S(=O)(=O)NC(=O)c2ccc(N3CCC([C@@H](O)c4ccccc4-c4ccc(Cl)cc4)CC3)cc2)cc1S(=O)(=O)C(F)(F)F [AZD4320] + C[C@@H]1COCCN1C2=NC(=NC(=C2)C3(CC3)[S@](=N)(=O)C)C4=C5C=CNC5=NC=C4 [AZD6738] (first compound max 1 µM, 7x7, partner max 10 µM)	-0.05	0.046	-0.0207	0.02	-0.105	0.0446	0.0521	-0.0439	-0.101	-0.0805	0.0184	0.0079	-0.019	0.0135	-0.0167	-0.0628	-0.0311	-0.0086	-0.0265	0.0215
CN(CCO)CC[C@H](CSc1ccccc1)Nc1ccc(S(=O)(=O)NC(=O)c2ccc(N3CCC([C@@H](O)c4ccccc4-c4ccc(Cl)cc4)CC3)cc2)cc1S(=O)(=O)C(F)(F)F [AZD4320] + Cc1cc2ncnn2cc1Nc1ncc2c(n1)n(C1CCOCC1)c(=O)n2C [AZD7648] (first compound max 1 µM, 7x7, partner max 10 µM)	-0.0359	-0.0275	-0.0551	-0.0106	0.0951	0.0475	0.0627	-0.0208	-0.0475	-0.0144	0.025	-0.0513	-0.0238	-0.0132	-0.0223	-0.0231	-0.0253	0.0309	-0.0276	-0.0586

— the supplement of paper PMC11061612
